Results reported in the supplement of paper PMC10307832.

Experiments:
Experiment in all cases: relative viability (nuclei count vs DMSO), 5 days (fraction); higher = more cells survive
[1] = compound: N[C@@H]1CCCN(c2c(/C=C3\SC(=O)NC3=O)cccc2-c2ccccc2)C1 [AZD1208] + CC(C)C[C@H](NC(=O)[C@H](Cc1ccccc1)NC(=O)c1cnccn1)B(O)O [Bortezomib] (partner 0.002 µM)
Outline: (§1)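 Medians of duplicate plates are given as relative viability. That measure is the nuclei count in treated wells divided by the count in vehicle wells. Counts were taken on 4× images of lung cancer cell lines in 1536-well plates, 5 days after pin-tool dosing the day after seeding with one drug alone or a fixed anchor-drug dose plus five library-drug doses (not always all listed) in √10 steps.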

[2] = compound: CN1CCN(CC1)C2=CC(=C(C=C2)NC3=NC(=C(S3)C(=O)C4=C(C=CC=C4Cl)Cl)N)OC [XMD14-99] + C[C@]1(O)C[C@@H](c2nc(-c3ccc4ccc(-c5ccccc5)nc4c3)c3c(N)nccn32)C1 [Linsitinib] (partner 1 µM)
Outline: as §1

[3] = compound: N[C@@H]1CCCN(c2c(/C=C3\SC(=O)NC3=O)cccc2-c2ccccc2)C1 [AZD1208] + COc1cc2c(Oc3ccc(NC(=O)C4(C(=O)Nc5ccc(F)cc5)CC4)cc3F)ccnc2cc1OCCCN1CCOCC1 [Foretinib] (partner 0.25 µM)
Outline: as §1

[4] = compound: N[C@@H]1CCCN(c2c(/C=C3\SC(=O)NC3=O)cccc2-c2ccccc2)C1 [AZD1208] + COc1cccc2cc(-c3nc([C@H]4CC[C@H](C(=O)O)CC4)n4ncnc(N)c34)[nH]c12 [OSI-027] (partner 0.5 µM)
Outline: as §1

UMC-11 gave a relative viability ([1]; first compound 0.08 µM) of 0.742, a relative viability ([1]; first compound 0.253 µM) of 0.755 and a relative viability ([1]; first compound 0.8 µM) of 0.644. The relative viability ([1]; first compound 2.53 µM) was 0.62, the relative viability ([1]; first compound 8 µM) was 0.374 and the relative viability ([2]; first compound 0.08 µM) was 1.03. It also gave a relative viability ([2]; first compound 0.8 µM) of 1.03, a relative viability ([2]; first compound 2.53 µM) of 1.03 and a relative viability ([2]; first compound 8 µM) of 0.858. It also gave a relative viability ([3]; first compound 0.08 µM) of 0.884, a relative viability ([3]; first compound 0.253 µM) of 0.877 and a relative viability ([3]; first compound 0.8 µM) of 0.77. For the same cell line, the relative viability ([3]; first compound 2.53 µM) was 0.741, the relative viability ([3]; first compound 8 µM) was 0.458 and the relative viability ([4]; first compound 0.08 µM) was 0.333. For the same cell line, the relative viability ([4]; first compound 0.253 µM) was 0.321, the relative viability ([4]; first compound 0.8 µM) was 0.321 and the relative viability ([4]; first compound 2.53 µM) was 0.329. For the same cell line, the relative viability ([4]; first compound 8 µM) was 0.294.
